The values that follow are results of earlier work, collected in patent US7198895B2, “In vitro cell-based methods for biological validation and pharmacological screening of chemical entities and biologicals” (priority 2000, dated 2007).

For series [1] the following is noted: treated subjects.
A further series deals with HepG2 cells. Conditions: HepG2 cells exposed to cis-platinum; ref (17).

On to `CCNC(C)Cc1cccc(C(F)(F)F)c1` (stereo not drawn) [Fenfluramine], for which, in series [1], the life-threatening adverse event result was “valvular fibrosis”.
As to `N.N.[Cl][Pt][Cl]` [cis-platinum], in the series with HepG2 cells, the “number of genes consistently differentially expressed” value is recorded as 14 genes and the “number of genes differentially expressed” value is on record as at least 200 genes.
